Molecules are shown by their SMILES.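 Assay format: 96-well plates, 48-hour exposure. GI50 = concentration required for 50% inhibition of growth. TGI is the concentration that stops growth completely.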

Some test systems named below: DLD-1 colon; DMS 114 small cell lung; DMS 273 small cell lung; HOP-18 NSCLC; KM20L2 colon; LXFL 529 NSCLC; NCI-H460 lung; NCI-H522 lung; RPMI-8226 leukemia; SK-MEL-28 melanoma; SNB-78 CNS; XF 498 CNS; NCI/ADR-RES ovarian; M19-MEL melanoma.
What all share (assay): inhibition of tumour cell growth, NCI panel, 48 h

Turning to `COc1ccc2c(c1)c(=O)c1ccccc1n2/C=C/C(=O)O`, the TGI in the experiment on DLD-1 colon was over 66.2 µM; in the experiment with DMS 114 small cell lung, over 100 µM; with DMS 273 small cell lung, over 67 µM; in the experiment on HOP-18 NSCLC it was over 100 µM; in the experiment on KM20L2 colon, over 100 µM; in the experiment with LXFL 529 NSCLC it was over 100 µM. The TGI in the experiment on NCI-H460 lung, with NCI-H522 lung, in the experiment on RPMI-8226 leukemia, in the experiment on SK-MEL-28 melanoma, with SNB-78 CNS and in the experiment with XF 498 CNS was over 100 µM in each case.

As for `COc1cc(O)cc(/C=C/c2ccc(O)cc2)c1`, the TGI in the experiment on NCI-H460 lung was over 100 µM; with NCI-H522 lung, over 100 µM; in the experiment on NCI/ADR-RES ovarian it was over 100 µM; with RPMI-8226 leukemia, 25.7 µM; with SK-MEL-28 melanoma it was over 100 µM.

For the compound `COc1cccc(-c2cc(=O)c3cc(OC)c(OC)cc3[nH]2)c1`, the TGI in the experiment on DLD-1 colon, in the experiment on DMS 114 small cell lung, with DMS 273 small cell lung, with KM20L2 colon, in the experiment on LXFL 529 NSCLC and in the experiment with M19-MEL melanoma was over 100 µM in each case. Further, the TGI in the experiment on NCI-H460 lung was over 100 µM; in the experiment with NCI-H522 lung it was 42.4 µM; in the experiment on RPMI-8226 leukemia it was over 100 µM; in the experiment on SK-MEL-28 melanoma, over 100 µM; in the experiment on SNB-78 CNS it was over 100 µM. In addition, in the experiment with DMS 114 small cell lung, the GI50 is 54.4 µM.

In the case of `CCOC(=O)c1c(N)nn2c1cc1cccccc12`, the TGI in the experiment on NCI-H460 lung is 58.6 µM; in the experiment with NCI-H522 lung it was 46.7 µM; in the experiment on NCI/ADR-RES ovarian it was 57.7 µM; with RPMI-8226 leukemia, 45.7 µM; in the experiment with SK-MEL-28 melanoma it was 83.3 µM.

In the case of `COc1cc(N(CCC#N)CCC#N)ccc1/C=C1\SC(=S)NC1=O`, the TGI with NCI-H460 lung, with NCI-H522 lung, in the experiment with NCI/ADR-RES ovarian, with RPMI-8226 leukemia and in the experiment with SK-MEL-28 melanoma was over 100 µM in each case.

For the compound `CSC1=C(C(=O)Nc2ccc(Cl)cc2)C(N)=NC1=O`, the TGI with NCI-H460 lung, in the experiment on NCI-H522 lung, in the experiment on NCI/ADR-RES ovarian, in the experiment on RPMI-8226 leukemia and in the experiment with SK-MEL-28 melanoma was over 100 µM throughout.

On to `COc1cc(/C=C2\C[C@H]3[C@@H]4CC=C5C[C@@H](O)CC[C@]5(C)[C@H]4CC[C@]3(C)[C@H]2O)cc(OC)c1OC`, for which the TGI in the experiment on NCI-H460 lung, in the experiment on NCI-H522 lung, in the experiment with NCI/ADR-RES ovarian, in the experiment on RPMI-8226 leukemia and in the experiment on SK-MEL-28 melanoma was over 100 µM each time.

`Cc1cc(C)nc(NS(=O)(=O)c2ccc(Nc3nncc(=O)n3N)cc2)n1`: the TGI is over 100 µM with NCI-H460 lung; 26.2 µM in the experiment on NCI-H522 lung; 55.9 µM in the experiment with NCI/ADR-RES ovarian; 49.8 µM in the experiment on RPMI-8226 leukemia; 74.6 µM with SK-MEL-28 melanoma.

As to `O=C1CCCCC1CN1CCCC1` (stereo not drawn), the TGI in the experiment with DLD-1 colon, with DMS 114 small cell lung, in the experiment with DMS 273 small cell lung, with KM20L2 colon, with LXFL 529 NSCLC and in the experiment on M19-MEL melanoma was over 100 µM throughout. Also, the TGI in the experiment on NCI-H460 lung was over 100 µM; in the experiment on NCI-H522 lung, 0.521 µM; in the experiment on RPMI-8226 leukemia, over 100 µM; in the experiment on SK-MEL-28 melanoma, over 100 µM; in the experiment on SNB-78 CNS it was over 100 µM; in the experiment with XF 498 CNS, over 100 µM.

In the case of `COc1ccc(N2C(=O)C3c4[nH]c5ccccc5c4C4CCCCCCCCCCC4C3C2=O)cc1` (stereo not drawn), the TGI is over 39.9 µM in the experiment with DLD-1 colon; over 47.5 µM in the experiment on DMS 114 small cell lung; 18.6 µM in the experiment with DMS 273 small cell lung; 6.53 µM in the experiment on HOP-18 NSCLC; 11.5 µM with KM20L2 colon; 23.7 µM with LXFL 529 NSCLC. The TGI in the experiment with M19-MEL melanoma was over 52.2 µM; with NCI-H460 lung it was 19.5 µM; in the experiment on NCI-H522 lung it was over 49.1 µM; in the experiment with RPMI-8226 leukemia, 43.2 µM; with SK-MEL-28 melanoma it was 29.7 µM; with XF 498 CNS, 28 µM.

With `COC(OC)C1OC(CO)C(n2cc(C)c(=O)[nH]c2=O)C1O` (stereo not drawn), the TGI in the experiment with NCI-H460 lung, in the experiment on NCI-H522 lung, in the experiment on NCI/ADR-RES ovarian, in the experiment on RPMI-8226 leukemia and in the experiment with SK-MEL-28 melanoma was over 100 µM each time.

As to `COc1ccc(CN2C[C@H]3[C@@H](CC(=O)O[C@H]3C)CC2=O)cc1`, the TGI with NCI-H460 lung, in the experiment on NCI-H522 lung, in the experiment with NCI/ADR-RES ovarian, with RPMI-8226 leukemia and in the experiment with SK-MEL-28 melanoma was over 100 µM each time.

Regarding `COC1=C2CC(C)CC(OC)[C@@H](OC(=O)CCN)[C@H](C)/C=C(\C)C(OC(N)=O)C(OC)/C=C\C=C(/C)C(=O)NC(=CC1=O)C2=O` (stereo partly drawn), the TGI turned out to be 24.4 µM with NCI-H460 lung; 0.658 µM in the experiment with NCI-H522 lung; 34.5 µM with NCI/ADR-RES ovarian; 14.5 µM with RPMI-8226 leukemia; 5.22 µM in the experiment on SK-MEL-28 melanoma.

Consider `CC(C)/C(Cl)=N\OC(=O)Nc1cccc(F)c1`, for which the TGI is over 66.8 µM in the experiment on NCI-H460 lung; 2.98 µM in the experiment with NCI-H522 lung; 37 µM with NCI/ADR-RES ovarian; 15.3 µM with RPMI-8226 leukemia; 31.9 µM in the experiment on SK-MEL-28 melanoma.

For the compound `C=CC(Cl)(CBr)CCC(Br)=C(C)C` (stereo not drawn), the TGI in the experiment with NCI-H460 lung turned out to be 38 µM; in the experiment on NCI-H522 lung it was 36.8 µM; with NCI/ADR-RES ovarian it was 91.2 µM; in the experiment with RPMI-8226 leukemia, 54.5 µM; in the experiment with SK-MEL-28 melanoma it was 40.7 µM.

As to `CC1=NN(c2cccc(Cl)c2)C2(SCC(=O)N2c2nc3ccccc3s2)/C1=C\c1ccc(Cl)cc1` (stereo not drawn), the TGI in the experiment on NCI-H460 lung was 33.3 µM; in the experiment with NCI-H522 lung, 39.2 µM; in the experiment with NCI/ADR-RES ovarian, over 100 µM; with RPMI-8226 leukemia it was 39.5 µM; with SK-MEL-28 melanoma it was 72.4 µM.

On to `CC(C)(C)OC(=O)N(O)[C@@H]1C=C[C@H](n2cnc3c(N)ncnc32)C1`, for which the TGI in the experiment with NCI-H460 lung, in the experiment on NCI-H522 lung, in the experiment with NCI/ADR-RES ovarian, in the experiment on RPMI-8226 leukemia and in the experiment with SK-MEL-28 melanoma was over 100 µM in each case.

`C=C1C(=O)O[C@@H]2[C@H]1C[C@@H](O)[C@H](C)[C@@](O)(C(=O)/C=C/C)[C@H]2OC(=O)C(C)CC` (stereo partly drawn): the TGI was over 100 µM in the experiment with NCI-H460 lung; 3.42 µM in the experiment with NCI-H522 lung; over 67.2 µM with NCI/ADR-RES ovarian; 18.2 µM in the experiment on RPMI-8226 leukemia; 24.2 µM in the experiment on SK-MEL-28 melanoma.

The values above are taken from PubChem BioAssay (NCI).
